Counter-ions that a name gives are not always drawn.
Test system: human JAK1
Test: In vitro JAK kinase assay (HTRF, phosphorylation of biotinylated peptide), JAK1
Format: biochemical
Conditions: ratio of JAK2 IC50 to JAK1 IC50, 1 mM ATP
Description: Compounds herein were tested for inhibitory activity of JAK targets according to the following in vitro assay described in Park et al., Analytical Biochemistry 1999, 269, 94-104. The catalytic domains of human JAK1 (a.a. 837-1142), JAK2 (a.a. 828-1132) and JAK3 (a.a. 781-1124) were expressed using baculovirus in insect cells and purified. The catalytic activity of JAK1, JAK2 or JAK3 was assayed by measuring the phosphorylation of a biotinylated peptide. The phosphorylated peptide was detected by homogenous time resolved fluorescence (HTRF). IC50s of compounds were measured for each kinase in the 40 μL reactions that contain the enzyme, ATP and 500 nM peptide in 50 mM Tris (pH 7.8) buffer with 100 mM NaCl, 5 mM DTT, and 0.1 mg/mL (0.01%) BSA. For the 1 mM IC50 measurements, ATP concentration in the reactions was 1 mM. Reactions were carried out at room temperature for 1 hour and then stopped with 20 μL 45 mM EDTA, 300 nM SA-APC, 6 nM Eu-Py20 in assay buffer (Perkin Elmer, Boston, Mass.). Binding to the Europium labeled antibody took place for 40 minutes and HTRF signal was measured on a PHERA star plate reader (BMG, Cary, N.C.). The Example compounds were each tested in the Example A assay (see Table 1 for data for the compounds of the examples as tested by the assay of Example A at 1 mM ATP).

Compound	JAK2/JAK1
((1R,2S,4S)-2-Hydroxy-4-{2-[(1R)-1-hydroxyethyl]-1H-imidazo[4,5-d]thieno[3,2-b]pyridin-1-yl}cyclohexyl)acetonitrile trifluoacetate and ((1S,2R,4R)-2-hydroxy-4-{2-[(1R)-1-hydroxyethyl]-1H-imidazo[4,5-d]thieno[3,2-b]pyridin-1-yl}cyclohexyl)acetonitrile trifluoacetate [37 (second peak)]	>10
C[C@@H](O)c1nc2cnc3ccsc3c2n1[C@H]1CC[C@H](CCC#N)CC1 [Example 8, 3-(trans-4-{2-[(1R)-1-Hydroxyethyl]-1H-imidazo[4,5-d]thieno[3,2-b]pyridin-1-yl}cyclohexyl)propanenitrile]	>10
C[C@@H](O)c1nc2cnc3ccsc3c2n1[C@H]1CC[C@H](CC#N)CC1 [Example 2, (trans-4-{2-[(1R)-1-Hydroxyethyl]-1H-imidazo[4,5-d]thieno[3,2-b]pyridin-1-yl}cyclohexyl)acetonitrile]	>10
C[C@@H](O)c1nc2cnc3ccsc3c2n1[C@@H]1CC[C@@H](CC#N)OC1 [Example 44, ((2S,5R)-5-{2-[(1R)-1-Hydroxyethyl]-1H-imidazo[4,5-d]thieno[3,2-b]pyridin-1-yl}tetrahydro-2H-pyran-2-yl)acetonitrile]	>10
Cc1nc2cnc3ccsc3c2n1[C@H]1CC[C@H](CC#N)OC1 [Example 38, [(2R,5S)-5-(2-Methyl-1H-imidazo[4,5-d]thieno[3,2-b]pyridin-1-yl)tetrahydro-2H-pyran-2-yl]acetonitrile]	>10
N#CC[C@H]1CC[C@H](n2/c(=N/C#N)[nH]c3cnc4ccsc4c32)CC1.O=C(O)C(F)(F)F [Example 25, {(2E)-1-[trans-4-(Cyanomethyl)cyclohexyl]-1,3-dihydro-2H-imidazo[4,5-d]thieno[3,2-b]pyridin-2-ylidene}cyanamide trifluoroacetate]	>6
C[C@@H](O)c1nc2cnc3ccsc3c2n1[C@H]1CC[C@@H](CC#N)OC1 [Example 21, ((2S,5S)-5-{2-[(1R)-1-Hydroxyethyl]-1H-imidazo[4,5-d]thieno[3,2-b]pyridin-1-yl}tetrahydro-2H-pyran-2-yl)acetonitrile]	>10
C[C@@H](O)c1nc2cnc3ccsc3c2n1C1CCN(CCC#N)CC1 [Example 16, 3-(4-{2-[(1R)-1-Hydroxyethyl]-1H-imidazo[4,5-d]thieno[3,2-b]pyridin-1-yl}piperidin-1-yl)propanenitrile]	>10
C[C@@H](O)c1nc2cnc3ccsc3c2n1[C@H]1CC[C@H](O)CC1 [Example 3, trans-4-{2-[(1R)-1-Hydroxyethyl]-1H-imidazo[4,5-d]thieno[3,2-b]pyridin-1-yl}cyclohexanol]	>10
Cc1nc2cnc3ccsc3c2n1[C@@H]1CC[C@@H](CC#N)[C@@H](O)C1 (mixture of isomers) [Example 34, Mixture of [(1R, 2R, 4S)-2-hydroxy-4-(2-methyl-1H-imidazo[4,5-d]thieno[3,2-b]pyridin-1-yl)cyclohexyl]acetonitrile trifluoroacetate and [(1S, 2S, 4R)-2-hydroxy-4-(2-methyl-1H-imidazo[4,5-d]thieno[3,2-b]pyridin-1-yl)cyclohexyl]acetonitrile trifluoroacetate]	>10
((1R,2R,4S)-2-Hydroxy-4-{2-[(1R)-1-hydroxyethyl]-1H-imidazo[4,5-d]thieno[3,2-b]pyridin-1-yl}cyclohexyl)acetonitrile and ((1S,2S,4R)-2-hydroxy-4-{2-[(1R)-1-hydroxyethyl]-1H-imidazo[4,5-d]thieno[3,2-b]pyridin-1-yl}cyclohexyl)acetonitrile [36 (first peak)]	>10
N#CC[C@H]1CC[C@H](n2c(CO)nc3cnc4ccsc4c32)CC1 [Example 17, {trans-4-[2-(Hydroxymethyl)-1H-imidazo[4,5-d]thieno[3,2-b]pyridin-1-yl]cyclohexyl}acetonitrile]	>10
CC(C)c1nc2cnc3ccsc3c2n1[C@H]1CC[C@H](CC#N)OC1 [Example 42, [(2R,5S)-5-(2-Isopropyl-1H-imidazo[4,5-d]thieno[3,2-b]pyridin-1-yl)tetrahydro-2H-pyran-2-yl]acetonitrile]	>10
C[C@@H](O)c1nc2cnc3ccsc3c2n1C1CCC(O)(CC#N)CC1 (single isomer, unassigned) [24 (second peak)]	>10

Second part, the compound after the results:

JAK2/JAK1	Compound
>10	C[C@@H](O)c1nc2cnc3ccsc3c2n1[C@H]1CCCN(C(=O)CCC#N)C1 [Example 58, 4-((3S)-3-{2-[(1R)-1-Hydroxyethyl]-1H-imidazo[4,5-d]thieno[3,2-b]pyridin-1-yl}piperidin-1-yl)-4-oxobutanenitrile]
>10	C[C@@H](O)c1nc2cnc3ccsc3c2n1[C@H]1CCCN(CCC#N)C1 [Example 56, 3-((3S)-3-{2-[(1R)-1-Hydroxyethyl]-1H-imidazo[4,5-d]thieno[3,2-b]pyridin-1-yl}piperidin-1-yl)propanenitrile]
>10	CCOC(=O)N1CCC[C@H](n2c([C@@H](C)O)nc3cnc4ccsc4c32)C1 [Example 50, Ethyl (3S)-3-{2-[(1R)-1-hydroxyethyl]-1H-imidazo[4,5-d]thieno[3,2-b]pyridin-1-yl}piperidine-1-carboxylate]
>10	C[C@@H](O)c1nc2cnc3ccsc3c2n1[C@H]1CCCN(C(=O)CCc2ccccc2)C1 [Example 57]
>10	C[C@@H](O)c1nc2cnc3ccsc3c2n1[C@H]1CC[C@H](CC#N)[C@H](N)C1 [Example 67, ((1R,2R,4S)-2-Amino-4-{2-[(1R)-1-hydroxyethyl]-1H-imidazo[4,5-d]thieno[3,2-b]pyridin-1-yl}cyclohexyl)acetonitrile]
>10	C[C@@H](O)c1nc2cnc3ccsc3c2n1[C@H]1CC[C@H](CNS(C)(=O)=O)CC1 [Example 80, N-[(trans-4-{2-[(1R)-1-Hydroxyethyl]-1H-imidazo[4,5-d]thieno[3,2-b]pyridin-1-yl}cyclohexyl)methyl]methanesulfonamide]
>10	CCOC(=O)NC[C@H]1CC[C@H](n2c([C@@H](C)O)nc3cnc4ccsc4c32)CC1 [Example 82, Ethyl [(trans-4-{2-[(1R)-1-hydroxyethyl]-1H-imidazo[4,5-d]thieno[3,2-b]pyridin-1-yl}cyclohexyl)methyl]carbamate]
>10	CC(=O)NC[C@H]1CC[C@H](n2c([C@@H](C)O)nc3cnc4ccsc4c32)CC1 [Example 79, N-[(trans-4-{2-[(1R)-1-Hydroxyethyl]-1H-imidazo[4,5-d]thieno[3,2-b]pyridin-1-yl}cyclohexyl)methyl]acetamide]
>10	C[C@@H](O)c1nc2cnc3ccsc3c2n1[C@H]1CCCN(C(=O)CCc2cn[nH]c2)C1 [Example 53, (1R)-1-(1-{(3S)-1-[3-(1H-Pyrazol-4-yl)propanoyl]piperidin-3-yl}-1H-imidazo[4,5-d]thieno[3,2-b]pyridin-2-yl)ethanol]
>10	C[C@@H](O)c1nc2cnc3ccsc3c2n1[C@H]1CCN(CCCC(F)(F)F)C1 [Example 64, (1R)-1-{1-[(3S)-1-(4,4,4-Trifluorobutyl)pyrrolidin-3-yl]-1H-imidazo[4,5-d]thieno[3,2-b]pyridin-2-yl}ethanol]
